According to patent publication US10512634B2, “Benzimidazole derivates useful as inhibitors of mammalian histone deacetylase activity” (KANCERA AB, priority 2015, dated 2019):
Read-outs that look alike come from different tables or passages of the source.

Experiments:
HDAC5 = HDAC5 (Homo sapiens (Human), UniProt Q9UQL6); assay: HDAC in vitro enzymatic assay (full HDAC panel); details: read-out: IC50 HDAC5, top concentration 10 μM
HDAC4 = HDAC4 (Homo sapiens (Human), UniProt P56524); assay: HDAC in vitro enzymatic assay (full HDAC panel); details: read-out: IC50 HDAC4, top concentration 10 μM
HDAC9 = HDAC9 (Homo sapiens (Human), UniProt Q9UKV0); assay: HDAC in vitro enzymatic assay (full HDAC panel); details: read-out: IC50 HDAC9, top concentration 10 μM
HDAC6 = HDAC6 (Homo sapiens (Human), UniProt Q9UBN7); assay: HDAC in vitro enzymatic assay (fluorescence); assay type: biochemical
Protocol: Biological Tests Method for Measurement of Enzymatic Activity of HDACs Materials & Methods
All Examples were tested in HDAC1, 2, 3, 6 and 8 in vitro enzymatic assays. The assay principle is well known (Hauser et al. 2009, Bradner et al. 2010) and all necessary reagents like enzymes, substrates, developer and reference compounds are commercially available (see e.g. BPS Biosciences http://www.bpsbioscience.com/). A series of dilutions of the compounds were prepared with a top concentration of 200 μM (2 μM for HDAC6). The enzymatic reactions were conducted in a mixture containing assay buffer, bovine serum albumin, HDAC substrate, and a test compound. After enzymatic reaction, developer was added and after an additional incubation time, fluorescence intensity was measured at an excitation wavelength of 360 nm and an emission wavelength of 460 nm. A selection of the Examples were tested in a full HDAC panel containing HDAC1, 2, 3, 4, 5, 6, 7, 8, 9, 10 and 11 in vitro enzymatic assays. The tests were performed as above except that a series of dilutions of the compounds were prepared with a top concentration of 10 μM for all HDACs.

HDAC11 = HDAC11 (Homo sapiens (Human), UniProt Q96DB2); assay: HDAC in vitro enzymatic assay (full HDAC panel); details: read-out: IC50 HDAC11, top concentration 10 μM
HDAC2 = HDAC2 (Homo sapiens (Human), UniProt Q92769); assay: HDAC in vitro enzymatic assay (fluorescence); details: read-out: IC50 HDAC2; full HDAC panel; top concentration 10 μM
HDAC8 = HDAC8 (Homo sapiens (Human), UniProt Q9BY41); assay: HDAC in vitro enzymatic assay (fluorescence); details: read-out: IC50 HDAC8; full HDAC panel; top concentration 10 μM
HDAC10 = HDAC10 (Homo sapiens (Human), UniProt Q969S8); assay: HDAC in vitro enzymatic assay (full HDAC panel); details: read-out: IC50 HDAC10, top concentration 10 μM
HDAC3 = HDAC3 (Homo sapiens (Human), UniProt O15379); assay: HDAC in vitro enzymatic assay (fluorescence); details: read-out: IC50 HDAC3; full HDAC panel; top concentration 10 μM
HDAC7 = HDAC7 (Homo sapiens (Human), UniProt Q8WUI4); assay: HDAC in vitro enzymatic assay (full HDAC panel); details: read-out: IC50 HDAC7, top concentration 10 μM
HDAC1 = HDAC1 (Homo sapiens (Human), UniProt Q13547); assay: HDAC in vitro enzymatic assay (fluorescence); details: read-out: IC50 HDAC 1; full HDAC panel; top concentration 10 μM
Chain of HDAC1 (Q13547 whole entry): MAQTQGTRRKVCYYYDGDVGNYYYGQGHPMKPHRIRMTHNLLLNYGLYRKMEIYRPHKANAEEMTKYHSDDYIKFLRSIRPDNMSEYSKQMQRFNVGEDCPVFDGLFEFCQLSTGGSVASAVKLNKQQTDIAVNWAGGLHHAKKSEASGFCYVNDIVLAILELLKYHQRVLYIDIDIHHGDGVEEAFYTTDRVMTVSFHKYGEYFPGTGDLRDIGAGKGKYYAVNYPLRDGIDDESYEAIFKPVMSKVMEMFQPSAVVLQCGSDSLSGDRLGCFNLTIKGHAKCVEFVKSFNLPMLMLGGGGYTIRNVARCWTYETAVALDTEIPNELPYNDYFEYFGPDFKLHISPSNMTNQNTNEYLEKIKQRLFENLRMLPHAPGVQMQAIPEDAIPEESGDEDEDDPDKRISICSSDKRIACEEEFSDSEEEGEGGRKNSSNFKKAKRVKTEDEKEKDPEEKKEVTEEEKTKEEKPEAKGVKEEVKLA

Chain of HDAC10 (Q969S8 whole entry): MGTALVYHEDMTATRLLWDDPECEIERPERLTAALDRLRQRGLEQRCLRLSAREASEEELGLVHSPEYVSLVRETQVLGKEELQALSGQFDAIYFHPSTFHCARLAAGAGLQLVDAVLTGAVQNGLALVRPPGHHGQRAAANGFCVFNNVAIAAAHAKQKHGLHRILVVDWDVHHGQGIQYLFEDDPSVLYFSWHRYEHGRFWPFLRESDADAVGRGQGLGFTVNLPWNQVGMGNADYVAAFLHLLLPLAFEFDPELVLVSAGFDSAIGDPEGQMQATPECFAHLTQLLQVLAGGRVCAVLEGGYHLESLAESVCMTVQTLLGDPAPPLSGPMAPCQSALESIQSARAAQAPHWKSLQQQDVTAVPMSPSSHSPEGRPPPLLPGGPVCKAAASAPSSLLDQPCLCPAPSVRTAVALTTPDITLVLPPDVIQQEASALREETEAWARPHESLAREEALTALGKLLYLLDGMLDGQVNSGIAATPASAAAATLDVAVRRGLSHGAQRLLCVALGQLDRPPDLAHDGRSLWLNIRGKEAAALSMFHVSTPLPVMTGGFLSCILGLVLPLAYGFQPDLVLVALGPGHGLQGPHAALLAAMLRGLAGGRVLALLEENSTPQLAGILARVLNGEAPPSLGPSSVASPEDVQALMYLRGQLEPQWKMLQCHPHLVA
Chain of HDAC3 (O15379 whole entry): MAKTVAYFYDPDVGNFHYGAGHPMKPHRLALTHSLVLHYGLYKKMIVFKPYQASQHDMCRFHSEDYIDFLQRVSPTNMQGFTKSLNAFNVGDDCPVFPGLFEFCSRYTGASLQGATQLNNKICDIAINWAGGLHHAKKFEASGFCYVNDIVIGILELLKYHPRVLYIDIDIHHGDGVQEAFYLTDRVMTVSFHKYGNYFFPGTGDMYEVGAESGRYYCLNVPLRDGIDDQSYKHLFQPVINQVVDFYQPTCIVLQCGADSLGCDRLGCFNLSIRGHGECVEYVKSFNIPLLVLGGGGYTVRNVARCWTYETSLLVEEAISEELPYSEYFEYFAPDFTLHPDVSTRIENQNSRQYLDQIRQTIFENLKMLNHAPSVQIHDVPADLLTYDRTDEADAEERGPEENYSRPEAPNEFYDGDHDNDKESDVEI
Chain of HDAC3 (Q9Y618 395-489 partner): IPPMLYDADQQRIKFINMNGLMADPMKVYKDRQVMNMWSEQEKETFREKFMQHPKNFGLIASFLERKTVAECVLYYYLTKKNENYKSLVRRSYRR
Chain of HDAC4 (P56524 whole entry): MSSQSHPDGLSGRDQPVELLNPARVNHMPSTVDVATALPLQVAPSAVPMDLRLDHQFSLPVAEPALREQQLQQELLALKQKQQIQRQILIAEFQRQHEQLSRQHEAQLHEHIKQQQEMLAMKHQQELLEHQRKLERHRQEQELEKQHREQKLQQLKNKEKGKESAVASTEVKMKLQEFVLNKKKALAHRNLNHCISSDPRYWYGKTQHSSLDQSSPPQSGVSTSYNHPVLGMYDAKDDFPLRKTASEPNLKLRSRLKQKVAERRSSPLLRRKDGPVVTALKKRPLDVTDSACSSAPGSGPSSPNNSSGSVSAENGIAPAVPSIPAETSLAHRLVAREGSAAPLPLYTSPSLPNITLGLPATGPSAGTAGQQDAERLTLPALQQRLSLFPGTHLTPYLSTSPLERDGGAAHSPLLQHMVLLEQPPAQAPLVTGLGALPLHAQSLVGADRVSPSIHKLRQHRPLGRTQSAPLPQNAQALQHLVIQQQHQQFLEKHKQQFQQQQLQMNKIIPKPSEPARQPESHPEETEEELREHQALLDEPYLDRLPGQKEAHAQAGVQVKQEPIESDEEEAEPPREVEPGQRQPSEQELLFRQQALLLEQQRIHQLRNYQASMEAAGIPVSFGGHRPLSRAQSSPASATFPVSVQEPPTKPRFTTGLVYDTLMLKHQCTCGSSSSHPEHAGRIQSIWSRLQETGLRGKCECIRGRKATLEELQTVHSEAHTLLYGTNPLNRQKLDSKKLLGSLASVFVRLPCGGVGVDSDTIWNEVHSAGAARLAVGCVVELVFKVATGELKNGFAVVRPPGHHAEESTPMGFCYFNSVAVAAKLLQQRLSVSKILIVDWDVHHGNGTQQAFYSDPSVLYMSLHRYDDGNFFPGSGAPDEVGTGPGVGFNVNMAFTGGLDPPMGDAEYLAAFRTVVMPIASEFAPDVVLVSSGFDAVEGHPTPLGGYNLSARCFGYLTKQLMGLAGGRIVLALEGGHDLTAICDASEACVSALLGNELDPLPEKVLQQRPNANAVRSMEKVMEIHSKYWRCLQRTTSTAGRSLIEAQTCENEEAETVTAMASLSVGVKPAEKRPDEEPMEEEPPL
Chain of HDAC7 (Q8WUI4 whole entry): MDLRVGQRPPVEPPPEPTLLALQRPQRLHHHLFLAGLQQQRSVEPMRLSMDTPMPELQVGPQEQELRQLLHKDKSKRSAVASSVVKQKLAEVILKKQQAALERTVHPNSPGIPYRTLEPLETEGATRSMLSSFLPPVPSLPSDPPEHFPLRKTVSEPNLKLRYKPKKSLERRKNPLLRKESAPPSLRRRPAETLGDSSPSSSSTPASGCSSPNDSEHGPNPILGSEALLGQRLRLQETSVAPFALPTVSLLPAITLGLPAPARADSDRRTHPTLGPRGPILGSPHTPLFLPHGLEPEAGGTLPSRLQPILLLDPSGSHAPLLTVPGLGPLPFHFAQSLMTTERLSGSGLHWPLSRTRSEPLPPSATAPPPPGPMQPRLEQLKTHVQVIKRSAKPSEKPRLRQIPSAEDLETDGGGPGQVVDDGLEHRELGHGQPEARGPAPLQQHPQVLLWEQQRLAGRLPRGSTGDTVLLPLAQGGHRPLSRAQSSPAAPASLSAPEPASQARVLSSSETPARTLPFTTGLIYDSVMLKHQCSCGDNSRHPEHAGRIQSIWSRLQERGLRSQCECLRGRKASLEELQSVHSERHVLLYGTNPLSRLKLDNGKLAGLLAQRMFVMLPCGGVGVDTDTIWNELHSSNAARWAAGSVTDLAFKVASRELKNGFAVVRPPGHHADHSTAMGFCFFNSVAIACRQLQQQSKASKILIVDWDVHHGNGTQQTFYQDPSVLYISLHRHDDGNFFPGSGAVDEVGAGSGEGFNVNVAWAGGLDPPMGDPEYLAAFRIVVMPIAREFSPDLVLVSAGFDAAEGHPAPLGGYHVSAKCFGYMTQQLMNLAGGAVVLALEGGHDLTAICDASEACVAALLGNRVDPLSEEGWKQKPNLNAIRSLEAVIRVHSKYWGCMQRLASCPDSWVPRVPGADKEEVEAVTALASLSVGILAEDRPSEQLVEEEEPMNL
Chain of HDAC8 (Q9BY41 whole entry): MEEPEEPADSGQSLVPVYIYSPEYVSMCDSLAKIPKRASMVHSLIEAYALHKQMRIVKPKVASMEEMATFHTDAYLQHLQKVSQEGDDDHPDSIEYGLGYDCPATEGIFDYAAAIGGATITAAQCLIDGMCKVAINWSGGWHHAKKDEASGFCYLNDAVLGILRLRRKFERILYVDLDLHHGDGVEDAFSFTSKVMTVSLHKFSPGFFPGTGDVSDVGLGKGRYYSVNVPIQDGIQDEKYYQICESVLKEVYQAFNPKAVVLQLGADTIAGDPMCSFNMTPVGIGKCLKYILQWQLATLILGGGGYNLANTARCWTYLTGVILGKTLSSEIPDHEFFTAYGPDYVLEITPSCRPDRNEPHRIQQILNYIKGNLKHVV
Chain of HDAC2 (Q92769 whole entry): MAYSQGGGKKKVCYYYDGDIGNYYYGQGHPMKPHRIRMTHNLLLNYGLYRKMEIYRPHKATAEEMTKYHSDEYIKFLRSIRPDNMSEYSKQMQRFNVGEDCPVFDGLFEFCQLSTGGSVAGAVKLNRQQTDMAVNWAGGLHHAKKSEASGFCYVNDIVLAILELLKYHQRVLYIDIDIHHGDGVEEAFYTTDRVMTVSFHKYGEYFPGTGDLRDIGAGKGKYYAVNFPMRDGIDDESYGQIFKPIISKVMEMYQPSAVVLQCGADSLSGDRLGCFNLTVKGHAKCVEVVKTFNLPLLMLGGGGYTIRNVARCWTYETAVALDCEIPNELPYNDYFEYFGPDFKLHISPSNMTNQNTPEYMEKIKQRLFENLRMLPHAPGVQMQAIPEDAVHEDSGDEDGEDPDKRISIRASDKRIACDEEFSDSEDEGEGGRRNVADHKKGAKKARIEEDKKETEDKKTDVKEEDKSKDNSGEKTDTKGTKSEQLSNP
Chain of HDAC11 (Q96DB2 whole entry): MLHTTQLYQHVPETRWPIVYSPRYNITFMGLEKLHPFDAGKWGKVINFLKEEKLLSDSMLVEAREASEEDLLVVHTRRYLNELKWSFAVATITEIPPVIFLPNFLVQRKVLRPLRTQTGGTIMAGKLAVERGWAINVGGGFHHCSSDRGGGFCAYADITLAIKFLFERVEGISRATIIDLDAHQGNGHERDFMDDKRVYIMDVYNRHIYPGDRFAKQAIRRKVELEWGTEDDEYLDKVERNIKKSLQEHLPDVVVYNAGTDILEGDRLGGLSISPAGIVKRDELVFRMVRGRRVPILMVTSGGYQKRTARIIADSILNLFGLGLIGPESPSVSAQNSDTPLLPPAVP

## Cc1cc(O)cc(C)c1-c1nc2ccc(C(=O)NO)cc2[nH]1 [Example 15, N-hydroxy-2-(4-hydroxy-2,6-dimethylphenyl)-1H-benzimidazole-6-carboxamide]
HDAC5
  IC50: > 10 µM
HDAC4
  IC50: > 10 µM
HDAC9
  IC50: 6.9 µM
HDAC6; full HDAC panel, top concentration 10 μM, read-out: IC50 HDAC6
  IC50: 69 nM
HDAC6; top concentration 2 μM, read-out: IC50 values for inhibition of HDAC6
  IC50: 69 nM
HDAC11
  IC50: > 10 µM
HDAC2
  IC50: > 10 µM
HDAC8
  IC50: > 10 µM
HDAC10
  IC50: > 10 µM
HDAC3
  IC50: 8.2 µM
HDAC7
  IC50: 3000 nM
HDAC1
  IC50: > 10 µM
